Type in all cases: in vivo
Experiment [1] concerns heartshape false pickerelweed (Monochoria vaginalis (Burm.f.) C.Presl). In words: Test Example 1: herbicidal effect by soil application to paddy field. To be noted: paddy field soil application; active ingredient 1,000 g per 1 hectare; wettable powder added dropwise to water surface the day after sowing; examined on the 21st day after application. Summed up:
(§1)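 Plants were sown in flooded (3 cm) paddy soil and evaluated for herbicidal effect 21 days after soil application in a greenhouse.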

The subject of experiment [2] is Japanese bulrush (Scirpus juncoides Roxb.). The description is as above. To be noted: paddy field soil application; active ingredient 1,000 g per 1 hectare; wettable powder added dropwise to water surface the day after sowing; examined on the 21st day after application. An outline of the steps: as §1
The subject of experiment [3] is early watergrass (Echinochloa oryzicola Vasing). The experiment is described as above. To be noted: paddy field soil application; active ingredient 1,000 g per 1 hectare; wettable powder added dropwise to water surface the day after sowing; examined on the 21st day after application. Summed up: as §1
The test system of experiment [4] is slender amaranth (Amaranthus viridis L.). The experiment can be described thus: Test Example 3: herbicidal effect by application to upland field (foliage treatment). To be noted: 14th day after application; for herbicidal effect, Slender Amaranth: foliage treatment, 1,000 g active ingredient per 1 hectare, greenhouse. How it is done:
(§2) [table] Test Example 3 Test on Herbicidal Effect by Application to Upland Field In a 80 cm2 plastic pot, field soil was filled. Seeds of barnyardgrass (Echinochloa crus-galli (L.) P. Beauv. var. crus-galli), green foxtail (Setaria viridis (L.) P. Beauv.), velvetleaf (Abutilon theophrasti medicus), and slender amaranth (Amaranthus viridis L.) were sown and allowed to grow for two weeks in a greenhouse. Thereafter, the wettable powder prepared according to Formulation Example 1 was diluted in water and a 1,000 liter equivalent amount per 1 hectare so that the active ingredient becomes 1,000 g per 1 hectare was sprayed using a small sprayer from a top of the plants through its entire body for foliage treatment. Then, on the 14th day after the application to the plants grew in a greenhouse, the herbicidal effect was examined in accordance with a standard shown in Table 34.

For experiment [5], the system named is green foxtail (Setaria viridis (L.) P. Beauv.). Described as above. To be noted: 14th day after application; for herbicidal effect, Green Foxtail: foliage treatment, 1,000 g active ingredient per 1 hectare, greenhouse. How it is done:
as §2

Experiment [6] deals with barnyardgrass (Echinochloa crus-galli (L.) P. Beauv. var. crus-galli). The description is as above. To be noted: 14th day after application; for herbicidal effect, Barnyardgrass: foliage treatment, 1,000 g active ingredient per 1 hectare, greenhouse. How it is done:
as §2

The subject of experiment [7] is velvetleaf (Abutilon theophrasti medicus). The experiment is described as above. To be noted: 14th day after application; for herbicidal effect, Velvetleaf: foliage treatment, 1,000 g active ingredient per 1 hectare, greenhouse. How it is done:
as §2

Where [8] appears, read: foliage treatment, plants grown two weeks, 1,000 g active ingredient per hectare.

Take `CCn1c(C(F)F)ccc(C(=O)C2=C(O)CCCC2=O)c1=O` [I-222]: the “herbicidal effect, Monochoria vaginalis (Burm. f.) C. Presl” value (“herbicidal effect, Monochoria vaginalis” for short) in experiment [1] is 5 (90% or more of herbicidal effect and crop phytotoxicity). In addition, the “herbicidal effect, Scirpus juncoides Roxb.” value in experiment [2] was 5 (90% or more of herbicidal effect and crop phytotoxicity). Besides, in experiment [3], the “herbicidal effect, Echinochloa oryzicola Vasing” value was 5 (90% or more of herbicidal effect and crop phytotoxicity). Besides, in experiment [4], the “herbicidal effect, Slender Amaranth” value was 5 (90% or more of herbicidal effect and crop phytotoxicity). Also, the “herbicidal effect, Green Foxtail” value in experiment [5] was 4 (70 to less than 90% of herbicidal effect and crop phytotoxicity). The “herbicidal effect, Barnyardgrass” value in experiment [6] is 5 (90% or more of herbicidal effect and crop phytotoxicity). In experiment [7], the “herbicidal effect, Velvetleaf” value was 5 (90% or more of herbicidal effect and crop phytotoxicity).

In the case of `Cn1ncc(C(=O)c2ccc(C(F)(F)F)n(-c3ccc(OC(F)(F)F)cc3)c2=O)c1O` [IV-67], the “herbicidal effect, Monochoria vaginalis” value in experiment [1] was 5 (90% or more of herbicidal effect and crop phytotoxicity). Moreover, the “herbicidal effect, Scirpus juncoides Roxb.” value in experiment [2] is 5 (90% or more of herbicidal effect and crop phytotoxicity). Moreover, the “herbicidal effect, Echinochloa oryzicola Vasing” value in experiment [3] was 5 (90% or more of herbicidal effect and crop phytotoxicity). Further, the “herbicidal effect, Slender Amaranth” value in experiment [4] is 5 (90% or more of herbicidal effect and crop phytotoxicity). Moreover, the “herbicidal effect, Green Foxtail” value in experiment [5] is 4 (70 to less than 90% of herbicidal effect and crop phytotoxicity). Besides, the “herbicidal effect, Barnyardgrass” value in experiment [6] was 4 (70 to less than 90% of herbicidal effect and crop phytotoxicity). Also, the “herbicidal effect, Velvetleaf” value in experiment [7] is 5 (90% or more of herbicidal effect and crop phytotoxicity).

`CC[S+]([O-])Cn1c(C(F)(F)F)ccc(C(=O)C2=C(O)C3CCC(C3)C2=O)c1=O` (stereo not drawn) [III-27]: in experiment [4], the “herbicidal effect, Slender Amaranth” value was 5 (90% or more of herbicidal effect and crop phytotoxicity). Moreover, in experiment [5], the “herbicidal effect, Green Foxtail” value is 5 (90% or more of herbicidal effect and crop phytotoxicity). In experiment [6], the “herbicidal effect, Barnyardgrass” value is 5 (90% or more of herbicidal effect and crop phytotoxicity). Moreover, the “herbicidal effect, Velvetleaf” value in experiment [7] is 5 (90% or more of herbicidal effect and crop phytotoxicity).

Take `O=C1CCCC(O)=C1C(=O)c1ccc(C(F)(F)F)n(CSC2CCCCC2)c1=O` [I-61]: the “herbicidal effect, Monochoria vaginalis” value in experiment [1] is 5 (90% or more of herbicidal effect and crop phytotoxicity). In experiment [2], the “herbicidal effect, Scirpus juncoides Roxb.” value was 4 (70 to less than 90% of herbicidal effect and crop phytotoxicity). For the same molecule, the “herbicidal effect, Echinochloa oryzicola Vasing” value in experiment [3] is 5 (90% or more of herbicidal effect and crop phytotoxicity). Besides, in experiment [4] (setting [8]), the “herbicidal effect (index), Slender Amaranth” value is 5 (90% or more of herbicidal effect and crop phytotoxicity). The “herbicidal effect (index), Green Foxtail” value in experiment [5] (setting [8]) is 4 (70 to less than 90% of herbicidal effect and crop phytotoxicity). The “herbicidal effect (index), Barnyardgrass” value in experiment [6] (setting [8]) was 5 (90% or more of herbicidal effect and crop phytotoxicity). In addition, the “herbicidal effect (index), Velvetleaf” value in experiment [7] (setting [8]) was 5 (90% or more of herbicidal effect and crop phytotoxicity).

With `CCN(CC)n1c(C(F)(F)F)ccc(C(=O)C2=C(O)CCCC2=O)c1=O` [I-172], the “herbicidal effect, Monochoria vaginalis” value in experiment [1] is 5 (90% or more of herbicidal effect and crop phytotoxicity). For the same molecule, the “herbicidal effect, Scirpus juncoides Roxb.” value in experiment [2] was 5 (90% or more of herbicidal effect and crop phytotoxicity). Moreover, the “herbicidal effect, Echinochloa oryzicola Vasing” value in experiment [3] was 5 (90% or more of herbicidal effect and crop phytotoxicity). The “herbicidal effect, Slender Amaranth” value in experiment [4] is 5 (90% or more of herbicidal effect and crop phytotoxicity). Besides, the “herbicidal effect, Green Foxtail” value in experiment [5] is 5 (90% or more of herbicidal effect and crop phytotoxicity). Besides, the “herbicidal effect, Barnyardgrass” value in experiment [6] was 5 (90% or more of herbicidal effect and crop phytotoxicity). In addition, the “herbicidal effect, Velvetleaf” value in experiment [7] is 5 (90% or more of herbicidal effect and crop phytotoxicity).

Take `CC(C)Nn1c(C(F)(F)F)ccc(C(=O)C2=C(O)CCCC2=O)c1=O` [I-160]: the “herbicidal effect, Monochoria vaginalis” value in experiment [1] was 5 (90% or more of herbicidal effect and crop phytotoxicity). For the same molecule, in experiment [2], the “herbicidal effect, Scirpus juncoides Roxb.” value is 5 (90% or more of herbicidal effect and crop phytotoxicity). Besides, the “herbicidal effect, Echinochloa oryzicola Vasing” value in experiment [3] was 5 (90% or more of herbicidal effect and crop phytotoxicity). In addition, in experiment [4], the “herbicidal effect, Slender Amaranth” value was 5 (90% or more of herbicidal effect and crop phytotoxicity). The “herbicidal effect, Green Foxtail” value in experiment [5] was 3 (50 to less than 70% of herbicidal effect and crop phytotoxicity). Also, in experiment [6], the “herbicidal effect, Barnyardgrass” value is 4 (70 to less than 90% of herbicidal effect and crop phytotoxicity). Moreover, the “herbicidal effect, Velvetleaf” value in experiment [7] is 5 (90% or more of herbicidal effect and crop phytotoxicity).

With `O=C1CCCC(O)=C1C(=O)c1ccc(C(F)(F)F)n(Cc2cccc([N+](=O)[O-])c2)c1=O` [I-116], in experiment [1], the “herbicidal effect, Monochoria vaginalis” value was 5 (90% or more of herbicidal effect and crop phytotoxicity). Moreover, the “herbicidal effect, Scirpus juncoides Roxb.” value in experiment [2] is 5 (90% or more of herbicidal effect and crop phytotoxicity). For the same molecule, the “herbicidal effect, Echinochloa oryzicola Vasing” value in experiment [3] is 5 (90% or more of herbicidal effect and crop phytotoxicity). Moreover, the “herbicidal effect, Slender Amaranth” value in experiment [4] is 5 (90% or more of herbicidal effect and crop phytotoxicity). Also, in experiment [5], the “herbicidal effect, Green Foxtail” value was 3 (50 to less than 70% of herbicidal effect and crop phytotoxicity). For the same molecule, the “herbicidal effect, Barnyardgrass” value in experiment [6] is 5 (90% or more of herbicidal effect and crop phytotoxicity). In addition, the “herbicidal effect, Velvetleaf” value in experiment [7] is 5 (90% or more of herbicidal effect and crop phytotoxicity).

For the molecule `CCCS(=O)(=O)Cc1c(Br)cc(C(=O)C2=C(O)CCCC2=O)c(=O)n1-c1ccccc1` [I-237], the “herbicidal effect, Slender Amaranth” value in experiment [4] was 5 (90% or more of herbicidal effect and crop phytotoxicity). The “herbicidal effect, Green Foxtail” value in experiment [5] is 4 (70 to less than 90% of herbicidal effect and crop phytotoxicity). The “herbicidal effect, Barnyardgrass” value in experiment [6] was 5 (90% or more of herbicidal effect and crop phytotoxicity). The “herbicidal effect, Velvetleaf” value in experiment [7] was 5 (90% or more of herbicidal effect and crop phytotoxicity).

For `CCSCn1c(C(F)(F)F)ccc(C(=O)C2=C(O)C3CCC(C3)C2=O)c1=O` (stereo not drawn) [III-26], in experiment [4], the “herbicidal effect, Slender Amaranth” value is 5 (90% or more of herbicidal effect and crop phytotoxicity). In addition, the “herbicidal effect, Green Foxtail” value in experiment [5] is 5 (90% or more of herbicidal effect and crop phytotoxicity). The “herbicidal effect, Barnyardgrass” value in experiment [6] is 5 (90% or more of herbicidal effect and crop phytotoxicity). The “herbicidal effect, Velvetleaf” value in experiment [7] was 5 (90% or more of herbicidal effect and crop phytotoxicity).

Regarding `Cn1ncc(C(=O)c2ccc(C(F)(F)F)n(CC3CCCO3)c2=O)c1OC(=O)c1ccc(C(C)(C)C)cc1` (stereo not drawn) [IV-132], the “herbicidal effect, Monochoria vaginalis” value in experiment [1] was 5 (90% or more of herbicidal effect and crop phytotoxicity). Moreover, the “herbicidal effect, Scirpus juncoides Roxb.” value in experiment [2] is 5 (90% or more of herbicidal effect and crop phytotoxicity). In experiment [3], the “herbicidal effect, Echinochloa oryzicola Vasing” value is 5 (90% or more of herbicidal effect and crop phytotoxicity).

Turning to `CCCS(=O)(=O)Oc1c(C(=O)c2ccc(C(F)(F)F)n(-c3cccc([S+](C)[O-])c3)c2=O)cnn1C` (stereo not drawn) [IV-73], the “herbicidal effect, Monochoria vaginalis” value in experiment [1] was 3 (50 to less than 70% of herbicidal effect and crop phytotoxicity). The “herbicidal effect, Scirpus juncoides Roxb.” value in experiment [2] was 4 (70 to less than 90% of herbicidal effect and crop phytotoxicity). The “herbicidal effect, Echinochloa oryzicola Vasing” value in experiment [3] was 4 (70 to less than 90% of herbicidal effect and crop phytotoxicity).

On to `COc1cccc(-n2c(C(F)(F)F)ccc(C(=O)C3=C(O)CCCC3=O)c2=O)c1` [I-77], for which the “herbicidal effect, Monochoria vaginalis” value in experiment [1] was 5 (90% or more of herbicidal effect and crop phytotoxicity). In addition, the “herbicidal effect, Scirpus juncoides Roxb.” value in experiment [2] is 5 (90% or more of herbicidal effect and crop phytotoxicity). The “herbicidal effect, Echinochloa oryzicola Vasing” value in experiment [3] is 5 (90% or more of herbicidal effect and crop phytotoxicity).

Turning to `COc1ccccc1-n1c(C(F)(F)F)ccc(C(=O)c2cnn(C)c2O)c1=O` [IV-64], the “herbicidal effect, Monochoria vaginalis” value in experiment [1] is 5 (90% or more of herbicidal effect and crop phytotoxicity). In addition, in experiment [2], the “herbicidal effect, Scirpus juncoides Roxb.” value is 5 (90% or more of herbicidal effect and crop phytotoxicity). Moreover, the “herbicidal effect, Echinochloa oryzicola Vasing” value in experiment [3] is 5 (90% or more of herbicidal effect and crop phytotoxicity).

On to `CN(C(=O)OC(C)(C)C)n1c(C(F)(F)F)ccc(C(=O)C2=C(O)CCCC2=O)c1=O` [I-194], for which, in experiment [1], the “herbicidal effect, Monochoria vaginalis” value is 5 (90% or more of herbicidal effect and crop phytotoxicity). The “herbicidal effect, Scirpus juncoides Roxb.” value in experiment [2] is 5 (90% or more of herbicidal effect and crop phytotoxicity). Also, the “herbicidal effect, Echinochloa oryzicola Vasing” value in experiment [3] is 5 (90% or more of herbicidal effect and crop phytotoxicity).

For the origin of these results see patent US8076487B2, “Pyridone derivative and herbicide” (Kumiai Chemical Industry Co., Ltd., priority 2006, dated 2011).
